Laboratory results as given in US10836792B2, “Retro-inverso peptide inhibitors of cell migration, extracellular matrix and endothelial invasion by tumor cells” (ISTITUTO NAZIONALE TUMORI IRCCS “FONDAZIONE G. PASCALE”, priority 2016, dated 2020).
Non-standard residues stand in square brackets, D forms with d. Residues, ends and D or L forms follow the SMILES beside them. Aib = CC(C)(N)C(=O)O

What was measured:
HT1080 cells = experiment: FBS-directed matrigel invasion of HT1080 cells (xCELLigence RTCA); assay type: cell-based, human
Text: FIG. 5 Peptides RI-1, RI-2, RI-3, RI-4 and RI-5 reduced by 33%, 35%, 81%, 52% and 11%, respectively, the extent of FBS-directed matrigel invasion of HT1080 cells (A), as assessed in real time using the xCELLigence RTCA technology. The inhibitory effect of RI-3 is dose-dependent (B) (Example 5).
Cell migration is a prerequisite for cancer invasion. Therefore, we investigated whether retro-inverso peptides prevent matrigel invasion of HT1080 cells using the xCELLigence RTCA technology. Cells were seeded on polymerized matrigel and lower chambers were filled with DMEM (CTRL), growth medium (None) or growth medium with 10 nM the indicated peptides (A), or with increasing concentrations of RI-3 (B). Matrigel invasion was monitored in real time for 20 (A) or 18 (B) hrs at 37° C., 5% CO2 and the impedance values were automatically monitored as changes in cell index. Data represent means±SD from quadruplicate experiments, each representative of 2 replicates. HT1080 cells were able to cross matrigel in the presence of 10% FBS. All retro-inverso peptides caused a reduction of FBS-directed cell migration although to different extent.

[1] = tested on: human chondrosarcoma Sarc; experiment: Trans-endothelial migration through HUVEC monolayer (xCELLigence RTCA), Sarc; assay type: cell-based; settings: 10 nM, 5 hrs
Description: (§1) FIG. 9 At the concentration of 10 nM the retro-inverso peptide RI-3 affects trans-endothelial migration of human chondrosarcoma Sarc (A), melanoma A375 (B), ovarian carcinoma SKOV-3 (C) cells, or THP1 monocytes (D), as monitored by the xCELLigence RTCA system (Example 9).
(§2) The entry of tumor cells into bloodstream is one of the earliest events of the metastatic process. The ability of RI-3 to affect trans-endothelial migration of human chondrosarcoma Sarc (A) melanoma A375 (B), ovarian carcinoma SKOV-3 (C) cells, or THP1 monocytes (D) was monitored by the xCELLigence RTCA system. Human Umbilical Vein Endothelial Cells (HUVEC) (1×10^4 cells/well) suspended in growth medium, were allowed to grow for 20-25 hrs until they form a confluent monolayer, prior to seeding Sarc, A375, SKOV-3, or THP-1 cells (1×10^4 cells/well) in growth medium in the absence (None) or in the presence of 10 nM RI-3. The experiments were performed twice in quadruplicate. When cells cross the endothelial monolayer, there is a drop in electrical resistance which is monitored in real-time for 5 hrs as the cell index changes due to the rupture of endothelial monolayer. All cell lines were able to reduce endothelial monolayer integrity. The addition of 10 nM RI-3 inhibited the capability of Sarc, A375, SKOV-3, and THP-1 cells to disrupt endothelial monolayers by 17%, 22%, 58%, and 36% respectively.

[2] = Stability in bovine serum, read out by HT1080 migration (xCELLigence); assay type: in vitro ADME; settings: 10^−3 mol/L in serum 18 hrs at 37° C., then tested at 10 nM
Description: FIG. 7 The retro-inverso peptide RI-3 is stable when pre-incubated in bovine (A) or human serum (B) as assessed in real time using the xCELLigence technology (A) or in Boyden chambers (B) (Example 7).
The stability of the retro-inverso peptide RI-3 in bovine and human serum was investigated through incubation of the peptide at a 10^−3 mol/L in serum for 18 hrs at 37° C. HT1080 cells were allowed to migrate toward DMEM (CTRL), 10% FBS (None), 10% FBS plus 10 nM RI-3 or 10% FBS with 10 nM RI-3 pre-incubated with bovine serum and the impedance values were automatically monitored in real time by the xCELLigence system for 18 hrs and expressed as cell index. Data represent the means from a quadruplicate experiment representative of 2 replicates. […] The stability of RI-3 in human serum was further investigated in cell invasion experiments performed in Boyden chambers. HT1080 cells were allowed to invade matrigel for 6 hrs, toward DMEM (CTRL), 10% FBS (None), 10% FBS plus 10 nM RI-3 or 10% FBS with 10 nM RI-3 pre-incubated with human serum. For quantitative analysis of cell invasion, the basal value assessed in the absence of FBS (CTRL) was taken as 100% and all values were reported relative to that. Data are the means±SD from a triplicate experiment. *Statistical significance was calculated against None with p<0.005. […]

[3] = tested on: metastatic melanoma A375M6; experiment: Matrigel invasion (xCELLigence RTCA), A375M6; assay type: cell-based, human; settings: 10 nM, 20 hrs
Description: (§3) FIG. 8 At the concentration of 10 nM the retro-inverso peptide RI-3 prevents matrigel invasion of tumor cells from human osteosarcoma Saos-2 (A), chondrosarcoma Sarc (B), melanoma A375 (C), metastatic melanoma A375M6 (D), ovarian carcinoma SKOV-3 cells (E), or primary ovarian cancer cells derived from a tumor excision (OV-53) (F), as monitored in real-time for 20 hr as changes in cell index by the xCELLigence RTCA system (Example 8).
(§4) To investigate the ability of RI-3 to prevents matrigel invasion of tumor cells form different tissue origins, human osteosarcoma Saos-2 (A), chondrosarcoma Sarc (B) melanoma A375 (C), metastatic melanoma A375M6 (D), ovarian carcinoma SKOV-3 cells (E) or primary ovarian cancer cells derived from a tumor excision (OV-53) (F) were seeded on polymerized matrigel and allowed to invade matrigel in the absence (None) or in the presence of 10 nM RI-3. Cell invasion was monitored in real-time for 20 hrs as changes in cell index by the xCELLigence RTCA system. Data represent mean±SD from quadruplicate experiments. All cell lines were able to cross matrigel, although to a different extent. In all case RI-3 reduced matrigel invasion by about 30%, 31%, 64%, 57%, 53% and 68%, of Saos-2, Sarc, A375, A375M6, SKOV-3 and OV-53 cells, respectively.

[4] = tested on: ovarian carcinoma SKOV-3 cells; experiment: Matrigel invasion (xCELLigence RTCA), SKOV-3; assay type: cell-based, human; settings: 10 nM, 20 hrs
Description: as §3, §4

THP1 monocytes = experiment: Trans-endothelial migration through HUVEC monolayer (xCELLigence RTCA), THP-1; assay type: cell-based, human; settings: 10 nM, 5 hrs
Description: as §1, §2

melanoma A375 = experiment: Trans-endothelial migration through HUVEC monolayer (xCELLigence RTCA), A375; assay type: cell-based, human; settings: 10 nM, 5 hrs
Description: as §1, §2

CC(=O)N[C@H](Cc1ccc(O)cc1)C(=O)N[C@H](CCCNC(=N)N)C(=O)NC(C)(C)C(=O)N[C@H](CCCNC(=N)N)C(N)=O [RI-3, Ac-(D)-Tyr-(D)-Arg-Aib-(D)-Arg-NH2] (Ac-[dY][dR][Aib][dR]-NH2)
reduction of the extent of FBS-directed cell invasion (matrigel) (HT1080 cells; 10 nM peptide, growth medium, 20 hrs): 81%
dose dependence of the inhibition of matrigel invasion (HT1080 cells; increasing concentrations, 18 hrs): maximal effect being reached in the nanomolar range
inhibition of the capability to disrupt endothelial monolayers [1]: 17%
stability after pre-incubation in bovine serum [2]: stable to enzymatic digestion
reduction of matrigel invasion [3]: ~57%
reduction of matrigel invasion [4]: ~53%
inhibition of the capability to disrupt endothelial monolayers (THP1 monocytes): 36%
inhibition of the capability to disrupt endothelial monolayers (melanoma A375): 22%
